A short description of test [1]: cells. Conditions: Homo sapiens, HCT-116.
For test [2], the target named is Serine/threonine-protein kinase PLK1 (Homo sapiens, UniProt P53350).
Test [3] relates to HCT-116. The test can be described thus: Effect on morphology in human HCT 116 cells assessed as monopolar spindle phenotype. It counts as functional, cell-based.
Test [4] addresses Serine/threonine-protein kinase PLK3 (Homo sapiens, UniProt Q9H4B4).
Test [5] has as its target Serine/threonine-protein kinase PLK2 (Homo sapiens, UniProt Q9NYY3).

Activity calls are given as the source filed them. The rule behind the calls is not given here. A value given as a limit tells only on which side of the number the result lay.

Sequence of Serine/threonine-protein kinase PLK1 (P53350 whole entry): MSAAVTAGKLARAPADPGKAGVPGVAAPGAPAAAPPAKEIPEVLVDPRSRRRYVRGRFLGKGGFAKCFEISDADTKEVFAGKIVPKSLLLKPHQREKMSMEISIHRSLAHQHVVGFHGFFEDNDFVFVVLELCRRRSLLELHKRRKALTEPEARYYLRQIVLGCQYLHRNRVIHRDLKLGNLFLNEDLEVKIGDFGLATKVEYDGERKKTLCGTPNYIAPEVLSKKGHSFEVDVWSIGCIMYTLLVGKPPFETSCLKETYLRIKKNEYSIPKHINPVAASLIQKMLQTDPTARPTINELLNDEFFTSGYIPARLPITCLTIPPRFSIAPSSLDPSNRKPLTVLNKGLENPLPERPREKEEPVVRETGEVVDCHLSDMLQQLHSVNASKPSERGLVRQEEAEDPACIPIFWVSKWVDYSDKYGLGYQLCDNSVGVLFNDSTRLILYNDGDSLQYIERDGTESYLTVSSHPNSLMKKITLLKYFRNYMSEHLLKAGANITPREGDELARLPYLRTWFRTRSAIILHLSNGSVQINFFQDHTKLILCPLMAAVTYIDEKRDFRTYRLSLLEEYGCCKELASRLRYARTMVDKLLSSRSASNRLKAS
Sequence of Serine/threonine-protein kinase PLK3 (Q9H4B4 whole entry): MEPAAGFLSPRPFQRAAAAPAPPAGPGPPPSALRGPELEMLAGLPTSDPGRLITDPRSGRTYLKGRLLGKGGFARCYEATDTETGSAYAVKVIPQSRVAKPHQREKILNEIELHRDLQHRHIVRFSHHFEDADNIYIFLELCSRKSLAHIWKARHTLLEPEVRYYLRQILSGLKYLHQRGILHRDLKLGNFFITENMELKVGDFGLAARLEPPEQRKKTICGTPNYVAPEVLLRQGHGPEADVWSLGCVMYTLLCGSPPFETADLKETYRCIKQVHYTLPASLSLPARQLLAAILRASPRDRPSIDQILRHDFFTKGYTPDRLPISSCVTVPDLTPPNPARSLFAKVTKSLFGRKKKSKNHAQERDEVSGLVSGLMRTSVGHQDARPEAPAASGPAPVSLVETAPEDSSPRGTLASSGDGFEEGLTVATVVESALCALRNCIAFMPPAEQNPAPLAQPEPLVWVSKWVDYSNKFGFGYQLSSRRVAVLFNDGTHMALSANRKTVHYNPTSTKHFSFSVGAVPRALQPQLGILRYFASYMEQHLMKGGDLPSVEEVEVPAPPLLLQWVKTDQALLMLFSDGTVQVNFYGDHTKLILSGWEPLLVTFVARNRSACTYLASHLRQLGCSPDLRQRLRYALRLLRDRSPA
Sequence of Serine/threonine-protein kinase PLK2 (Q9NYY3 whole entry): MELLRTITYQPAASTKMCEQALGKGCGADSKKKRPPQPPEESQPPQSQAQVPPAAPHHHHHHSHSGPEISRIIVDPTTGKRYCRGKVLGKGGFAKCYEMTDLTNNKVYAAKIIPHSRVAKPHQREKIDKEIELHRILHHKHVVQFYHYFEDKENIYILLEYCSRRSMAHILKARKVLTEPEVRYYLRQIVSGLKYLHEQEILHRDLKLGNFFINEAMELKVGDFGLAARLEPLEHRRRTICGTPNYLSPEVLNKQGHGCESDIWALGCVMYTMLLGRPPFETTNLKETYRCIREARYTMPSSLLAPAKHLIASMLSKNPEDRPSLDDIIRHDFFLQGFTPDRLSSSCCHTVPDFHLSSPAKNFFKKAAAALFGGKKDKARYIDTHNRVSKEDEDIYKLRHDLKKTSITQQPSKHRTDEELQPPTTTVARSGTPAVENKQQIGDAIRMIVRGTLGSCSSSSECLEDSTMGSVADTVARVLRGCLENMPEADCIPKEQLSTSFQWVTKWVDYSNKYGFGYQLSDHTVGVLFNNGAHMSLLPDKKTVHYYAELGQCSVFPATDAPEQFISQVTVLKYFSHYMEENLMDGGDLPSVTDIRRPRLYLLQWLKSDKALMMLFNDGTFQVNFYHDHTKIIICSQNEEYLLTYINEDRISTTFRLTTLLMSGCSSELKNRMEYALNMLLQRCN

As for `COc1ccc(-c2noc3cnc(N[C@@H](C)c4ccccc4)cc23)cc1OC`, in test [1], the half-maximal inhibitory concentration (IC50) is > 20 µM. In the case of `C[C@H](Nc1cc2c(-c3ccccc3)noc2cn1)c1ccccc1`, the concentration for half-maximal inhibition (IC50) in test [1] is > 20 µM. Take `C[C@H](Nc1cc2c(Cc3ccccc3)noc2cn1)c1ccccc1`: the IC50 in test [2] was > 20 µM. On to `Cc1cc(C)cc(-c2noc3cnc(N[C@@H](C)c4ccccc4)cc23)c1`, for which the IC50 in test [1] was > 20 µM. `C[C@H](Nc1cc2c(-c3cc(Cl)cc(CCC(N)=O)c3)noc2cn1)c1ccccc1` showed a half-maximal inhibitory concentration (IC50) in test [1] of 8.35 µM. Further, in test [3], the outcome was Active.

Take `C[C@H](Nc1cc2c(-c3cccc(Cl)c3)noc2cn1)c1ccccc1`: the IC50 in test [1] was > 20 µM.

Take `C[C@H](Nc1cc2c(-c3cc(Cl)cc(CCCO)c3)noc2cn1)c1ccccc1`: inhibition in test [1] was half-maximal at 10.2 µM (IC50). That is a double-digit micromolar value.

For the compound `C[C@H](Nc1cc2c(-c3ccc4c(c3)OCO4)noc2cn1)c1ccccc1`, the IC50 in test [4] was 0.024 µM; in test [2], 0.214 µM; in test [5], 0.004 µM; in test [1], 7.32 µM. For `Cc1ccc(-c2noc3cnc(N[C@@H](C)c4ccccc4)cc23)cc1`, in test [1], the IC50 was > 20 µM. Same read-out and setting: to `Cc1cccc(-c2noc3cnc(N[C@@H](C)c4ccccc4)cc23)c1` belongs 6.69 µM.

For the origin of these results see ChEMBL document CHEMBL1144226, “Design and synthesis of 2-amino-isoxazolopyridines as Polo-like kinase inhibitors” (Bioorg Med Chem Lett, 2008).
